Laboratory results: patent US12364213B2, “Container for growth of cryo-sprouts” (RÄ FOODS HOLDINGS LLC, priority 2015, dated 2025)

Columns and labels:
Salmonella spp. = Salmonella spp. cocktail challenge on sprouts grown from soaked seeds (MPN and direct plating); type: cell-based
Description: (§1) Isolates used to inoculate cryo-sprouts were grown in pure culture and quantitated in order to determine dilutions required to achieve a target level when inoculated into the product.
(§2) The study encompassed three treatments exposed to two different temperatures over the course of 28 days, with weekly pulls, see Table 1 below.
(§3) Initial counts were determined immediately after inoculation for each treatment on Day 0, and again after incubation at 40° F. for 21 days, and 50° F. for 12 days. Subsequent pulls occurred on a weekly basis from Day 0 (after the 21 days at 40° F. or after 12 days at 50° F.) through Day 28.
(§4) The pulls occurred on Shelf Life Day 0, 7, 14, 21, and 28.
(§5) One milliliter from each of the five Salmonella cultures was combined to form a cocktail. The Listeria monocytogenes and E. coli O157:H7 cultures were similarly combined to form a second and third cocktail. These three cocktails were diluted and added to the trays containing 60 ml of deionized water.
(§6) Plastic trays with membrane were filled with 35 grams of soaked sprout seeds representing each of the three treatment groups.
(§7) Sixty milliliters of deionized water was added to each tray along with a final concentration of approximately 1.0 E+3-1.0 E+4 cfu/ml of each of the three cocktails (Salmonella and Listeria together in one set, and E. coli O157:H7 into another set).
(§8) Salmonella samples were serially diluted and spread plated on a Tryptic Soy Agar (TSA) basal layer and capped with XLD, incubated at 95° F. (35° C.) for 2 days. An MPN (Most probable number), consisting of a combination of the three samples, was also set up on each pull day due to the high number of other organisms present in the samples which obscured the direct counts.

L. monocytogenes = L. monocytogenes cocktail challenge on sprouts grown from soaked seeds (MPN and direct plating); type: cell-based, Listeria monocytogenes
Description: as §1, §2, §3, §4, §5, §6, §7
as §8, with “Listeria” for “Salmonella”, “and” for “and spread”, “TSA” for “Tryptic Soy Agar (TSA)”, “Modified Oxford Medium (MOX),” for “XLD,”, “MPN,” for “MPN (Most probable number),”

E. coli O157:H7 = E. coli O157:H7 cocktail challenge on sprouts grown from soaked seeds (MPN and direct plating); type: cell-based
Description: as §1, §2, §3, §4, §5, §6, §7
as §8, with “E. coli O157:H7” for “Salmonella”, “and” for “and spread”, “TSA” for “Tryptic Soy Agar (TSA)”, “EMB,” for “XLD,”, “MPN,” for “MPN (Most probable number),”

total aerobic bacteria = experiment: Aerobic Plate Count at Shelf Life Day 28 on samples grown at 40° F.; type: cell-based
Description: Aerobic Plate Counts were also analyzed at Shelf Life Day 28 on the samples grown at 40° F. by plating to Standard Methods Agar and incubated at 95° F. for 2 days to determine the total aerobic bacteria present in the samples.

[1] = test system: Salmonella, Listeria monocytogenes, and E. coli O157:H7; experiment: Pathogen challenge study, overall impact of soak treatments versus Control; type: cell-based; details: seed soak treatments; 40° F. and 50° F.
[2] = grown 12 days at 50° F., held at 40° F.
[3] = grown 12 days at 50° F., Shelf Life Day 0
[4] = grown 12 days at 50° F., Shelf Life Day 7 at 40° F.
[5] = grown 12 days at 50° F., Shelf Life Day 14 at 40° F.
[6] = grown 12 days at 50° F., Shelf Life Day 21 at 40° F.
[7] = grown 12 days at 50° F., Shelf Life Day 28 at 40° F.
[8] = grown 21 days at 40° F., held at 40° F. through Shelf Life Day 28, from Day 0 to below detectable limit
[9] = grown 21 days at 40° F., held at 40° F., end of study, below detectable limit
[10] = grown 21 days at 40° F., Shelf Life Day 0 at 40° F.
[11] = grown 21 days at 40° F., Shelf Life Day 7 at 40° F.
[12] = grown 21 days at 40° F., Shelf Life Day 14 at 40° F.
[13] = grown 21 days at 40° F., Shelf Life Day 21 at 40° F.
[14] = grown 21 days at 40° F., Shelf Life Day 28 at 40° F.
[15] = grown 12 days at 50° F., Shelf Life Day 28
[16] = grown 21 days at 40° F., Shelf Life Day 21
[17] = grown 21 days at 40° F., Shelf Life Day 28

CC(=O)O [Acetic Acid, acetic acid]
Salmonella spp. counts at each pull date via MPN and plating methods (Salmonella spp.; [2]): 1.4-3 logs | Log10 (Salmonella MPN/g) or (CFU) (Salmonella spp.; [3]): 3.04 Log10 MPN/g | Salmonella (MPN/g) or (CFU) (Salmonella spp.; [3]): 1,100 MPN/g | Log10 (Salmonella MPN/g) or (CFU) (Salmonella spp.; [4]): 2.63 Log10 MPN/g | Salmonella (MPN/g) or (CFU) (Salmonella spp.; [4]): 430 MPN/g | Log10 (Salmonella MPN/g) or (CFU) (Salmonella spp.; [5]): 2.46 Log10 MPN/g | Salmonella (MPN/g) or (CFU) (Salmonella spp.; [5]): 290 MPN/g | Log10 (Salmonella MPN/g) or (CFU) (Salmonella spp.; [6]): 2.04 Log10 MPN/g | Salmonella (MPN/g) or (CFU) (Salmonella spp.; [6]): 110 MPN/g | Log10 (Salmonella MPN/g) or (CFU) (Salmonella spp.; [7]): 1.63 Log10 MPN/g | Salmonella (MPN/g) or (CFU) (Salmonella spp.; [7]): 43 MPN/g | Salmonella spp. overall log reduction (Salmonella spp.; [8]): 3.87 logs | Salmonella spp. level, direct plating (Salmonella spp.; [9]): < 10 cfu/g | Log10 (Salmonella MPN/g) or (CFU) (Salmonella spp.; [10]): 2.18 Log10 MPN/g | Salmonella (MPN/g) or (CFU) (Salmonella spp.; [10]): 150 MPN/g | Log10 (Salmonella MPN/g) or (CFU) (Salmonella spp.; [11]): 0.96 Log10 MPN/g | Salmonella (MPN/g) or (CFU) (Salmonella spp.; [11]): 9.2 MPN/g | Log10 (Salmonella MPN/g) or (CFU) (Salmonella spp.; [12]): <−0.5 Log10 MPN/g | Salmonella (MPN/g) or (CFU) (Salmonella spp.; [12]): <0.3 MPN/g | Log10 (Salmonella MPN/g) or (CFU) (Salmonella spp.; [13]): <−0.5 Log10 MPN/g | Salmonella (MPN/g) or (CFU) (Salmonella spp.; [13]): <0.3 MPN/g | Log10 (Salmonella MPN/g) or (CFU) (Salmonella spp.; [14]): <−0.5 Log10 MPN/g | Salmonella (MPN/g) or (CFU) (Salmonella spp.; [14]): < 0.3 MPN/g | Salmonella (MPN/g) or (CFU) (Salmonella spp.; grown 21 days at 40° F., Shelf Life Day 28 at 40° F., listed as Acetic): <0.3 MPN/g | L. monocytogenes increase through Shelf Life Day 21 (L. monocytogenes; [2]): approximately 2.5 logs | L. monocytogenes (MPN/g) or (CFU) (L. monocytogenes; [3]): > 1,100 MPN/g | Log10 (L. monocytogenes MPN/g) or (CFU) (L. monocytogenes; [3]): 3.04 Log10 MPN/g | L. monocytogenes (MPN/g) or (CFU) (L. monocytogenes; [4]): 24,000 MPN/g | Log10 (L. monocytogenes MPN/g) or (CFU) (L. monocytogenes; [4]): 4.38 Log10 MPN/g | L. monocytogenes (MPN/g) or (CFU) (L. monocytogenes; [5]): > 110,000 MPN/g | Log10 (L. monocytogenes MPN/g) or (CFU) (L. monocytogenes; [5]): 5.04 Log10 MPN/g | L. monocytogenes average, direct plating (L. monocytogenes; grown 12 days at 50° F., Shelf Life Day 21): 2.1 E+5 cfu/g | L. monocytogenes (MPN/g) or (CFU) (L. monocytogenes; [6]): 2.4 E+5 MPN/g | Log10 (L. monocytogenes MPN/g) or (CFU) (L. monocytogenes; [6]): 5.38 Log10 MPN/g | L. monocytogenes (MPN/g) or (CFU) (L. monocytogenes; grown 12 days at 50° F., Shelf Life Day 21 at 40° F., listed as Acetic): 240,000 MPN/g | L. monocytogenes log increase, direct plating method (L. monocytogenes; [15]): 5.14 logs | L. monocytogenes overall log increase, MPN method (L. monocytogenes; grown 12 days at 50° F., Shelf Life Day 28, from inoculated controls): 1.82 logs | L. monocytogenes direct counts, avg. log value (L. monocytogenes; grown 12 days at 50° F., Shelf Life Day 28, obscured by background flora, possible overestimation): 7.95 | L. monocytogenes (MPN/g) or (CFU) (L. monocytogenes; [7]): 43,000 MPN/g | Log10 (L. monocytogenes MPN/g) or (CFU) (L. monocytogenes; [7]): 4.63 Log10 MPN/g | L. monocytogenes (MPN/g) or (CFU) (L. monocytogenes; [10]): 230 MPN/g | Log10 (L. monocytogenes MPN/g) or (CFU) (L. monocytogenes; [10]): 2.36 Log10 MPN/g | L. monocytogenes (MPN/g) or (CFU) (L. monocytogenes; [11]): 4.3 MPN/g | Log10 (L. monocytogenes MPN/g) or (CFU) (L. monocytogenes; [11]): 0.63 Log10 MPN/g | L. monocytogenes log increase, direct plating (L. monocytogenes; grown 21 days at 40° F., Shelf Life Day 14): 1.33 logs | L. monocytogenes direct plating counts, average (L. monocytogenes; grown 21 days at 40° F., Shelf Life Day 14, 21, and 28): approximately 4 logs | L. monocytogenes (MPN/g) or (CFU) (L. monocytogenes; [12]): > 1,100 MPN/g | Log10 (L. monocytogenes MPN/g) or (CFU) (L. monocytogenes; [12]): 3.04 Log10 MPN/g | L. monocytogenes direct plating count (L. monocytogenes; [16]): 4.04 logs | L. monocytogenes log increase, direct plating (L. monocytogenes; [16]): 1.23 logs | L. monocytogenes (MPN/g) or (CFU) (L. monocytogenes; [13]): 930 MPN/g | Log10 (L. monocytogenes MPN/g) or (CFU) (L. monocytogenes; [13]): 2.97 Log10 MPN/g | L. monocytogenes direct count log value (L. monocytogenes; [17]): 4.50 logs | L. monocytogenes log increase, direct plating (L. monocytogenes; [17]): 1.69 logs | L. monocytogenes overall log increase, MPN method (L. monocytogenes; [17]): > 0.23 logs | L. monocytogenes (MPN/g) or (CFU) (L. monocytogenes; [14]): > 1,100 MPN/g | Log10 (L. monocytogenes MPN/g) or (CFU) (L. monocytogenes; [14]): 3.04 Log10 MPN/g | E. coli O157:H7 avg. log values for each pull day (E. coli O157:H7; [2]): 3-5 logs | E. coli O157:H7 (MPN/mL) or (CFU) (E. coli O157:H7; [3]): 1,100 MPN/mL | Log10 (E. coli O157:H7 MPN/g) or (CFU) (E. coli O157:H7; [3]): 3.04 Log10 MPN/g | E. coli O157:H7 (MPN/mL) or (CFU) (E. coli O157:H7; [4]): 110,000 MPN/mL | Log10 (E. coli O157:H7 MPN/g) or (CFU) (E. coli O157:H7; [4]): 5.04 Log10 MPN/g | E. coli O157:H7 (MPN/mL) or (CFU) (E. coli O157:H7; [5]): 46,000 MPN/mL | Log10 (E. coli O157:H7 MPN/g) or (CFU) (E. coli O157:H7; [5]): 4.66 Log10 MPN/g | E. coli O157:H7 (MPN/mL) or (CFU) (E. coli O157:H7; [6]): 930 MPN/mL | Log10 (E. coli O157:H7 MPN/g) or (CFU) (E. coli O157:H7; [6]): 2.97 Log10 MPN/g | E. coli O157:H7 level, MPN method (E. coli O157:H7; [15]): 2,400 MPN/g | E. coli O157:H7 overall log reduction, MPN method (E. coli O157:H7; grown 12 days at 50° F., Shelf Life Day 28, from Day 0 inoculated control): 1.73 logs | E. coli O157:H7 (MPN/mL) or (CFU) (E. coli O157:H7; [7]): 2,400 MPN/mL | Log10 (E. coli O157:H7 MPN/g) or (CFU) (E. coli O157:H7; [7]): 3.38 Log10 MPN/g | E. coli O157:H7 overall log reduction (E. coli O157:H7; [8]): 4.16 logs | E. coli O157:H7 level, MPN (E. coli O157:H7; [9]): < 0.3 MPN/g | E. coli O157:H7 level, direct plating (E. coli O157:H7; [9]): < 10 cfu/g | E. coli O157:H7 (MPN/mL) or (CFU) (E. coli O157:H7; [10]): <30 MPN/mL | Log10 (E. coli O157:H7 MPN/g) or (CFU) (E. coli O157:H7; [10]): 0.95 Log10 MPN/g | E. coli O157:H7 (MPN/mL) or (CFU) (E. coli O157:H7; [11]): 9.3 MPN/mL | Log10 (E. coli O157:H7 MPN/g) or (CFU) (E. coli O157:H7; [11]): 0.97 Log10 MPN/g | E. coli O157:H7 (MPN/mL) or (CFU) (E. coli O157:H7; [12]): 0.30 MPN/mL | Log10 (E. coli O157:H7 MPN/g) or (CFU) (E. coli O157:H7; [12]): −0.5 Log10 MPN/g | E. coli O157:H7 (MPN/mL) or (CFU) (E. coli O157:H7; [13]): <0.3 MPN/mL | Log10 (E. coli O157:H7 MPN/g) or (CFU) (E. coli O157:H7; [13]): <−0.5 Log10 MPN/g | E. coli O157:H7 (MPN/mL) or (CFU) (E. coli O157:H7; [14]): <0.3 MPN/mL | Log10 (E. coli O157:H7 MPN/g) or (CFU) (E. coli O157:H7; [14]): <−0.5 Log10 MPN/g | Aerobic Plate Count, average (total aerobic bacteria): 8.1 E+8 cfu/g | Aerobic Plate Count, avg. log value (total aerobic bacteria): 8.91 | impact on the counts in comparison to the Control treatment [1]: did not appear to have a significant impact
